Biological target: T1, recombinant human MetAP2 (Homo sapiens, UniProt P50579)
T1 construct: made in house; host or cells: Sf9 insect cells
Test: Inhibition of recombinant human MetAP2 activity (MAS substrate, amino acid oxidase/Amplex red fluorescence)
Format: biochemical
Settings: manganese enzyme, 30 minutes at 25° C., pH 7.5, 0.75 mM MAS substrate, 1% DMSO
Method: Compounds are tested for their capacity to inhibit recombinant human MetAP2 activity using the following assay.
Human recombinant MetAP2 expressed in Sf9 cells followed by affinity purification and EDTA treatment to remove endogenous active site cation was dialysed against MnCl2 to produce the manganese enzyme used in the assay. The assay was carried out for 30 minutes at 25° C. in 50 mM HEPES buffer containing 100 mM NaCl, pH 7.5 the presence of 0.75 mM Methionine-Alanine-Serine (MAS) substrate and 50 μg/mL amino acid oxidase using a dilution of purified MetAP2 giving >3-fold signal:noise. Cleavage of the substrate by MetAP2 and oxidation of free methionine by amino acid oxidase was detected and quantified using fluorescence generated by Amplex red (10-acetyl-3,7-dihydroxyphenoxazine) in combination with horseradish peroxidase which detects H2O2 released during the oxidation step. The fluorescent signal was detected using a multiwell fluorimeter. Compounds were diluted in DMSO prior to addition to assay buffer, the final DMSO concentration in the assay being 1%.
The IC50 is defined as the concentration at which a given compound achieves 50% inhibition of control. IC50 values are calculated using the XLfit software package (version 2.0.5).

T1 sequence (P50579 whole entry): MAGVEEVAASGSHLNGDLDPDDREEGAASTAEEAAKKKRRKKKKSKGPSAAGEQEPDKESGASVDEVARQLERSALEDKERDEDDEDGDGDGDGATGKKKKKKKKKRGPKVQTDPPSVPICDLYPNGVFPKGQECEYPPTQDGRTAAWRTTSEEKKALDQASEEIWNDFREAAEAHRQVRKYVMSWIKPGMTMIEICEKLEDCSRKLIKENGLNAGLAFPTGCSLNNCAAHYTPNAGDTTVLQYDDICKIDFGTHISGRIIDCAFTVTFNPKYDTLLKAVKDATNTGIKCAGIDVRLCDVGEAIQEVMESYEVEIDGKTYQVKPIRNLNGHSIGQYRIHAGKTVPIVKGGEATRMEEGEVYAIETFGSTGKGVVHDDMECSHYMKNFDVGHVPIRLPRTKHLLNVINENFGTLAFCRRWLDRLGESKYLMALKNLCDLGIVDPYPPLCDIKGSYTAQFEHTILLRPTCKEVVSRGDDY

Row | Compound | IC50 [nM]
1 | CCN(CC)C/C=C\c1cc(F)ccc1S(=O)(=O)Cc1ccc2c(c1C(=O)O)OC(C)c1occc1-2 (racemic) [Example 15] | < 100
2 | CCN(CC)C/C=C\c1cc(F)ccc1S(=O)(=O)Cc1ccc2c(c1C(=O)O)OC(C)c1occc1-2 (single isomer, unassigned) [Example 18A, 7-[2-((Z)-3-diethylaminoprop-1-enyl)-4-fluorobenzenesulfonylmethyl]-4-methyl-4H-furo[2,3-c]chromene-6-carboxylic Acid] | < 100
3 | CCN(CC)C/C=C\c1cc(F)ccc1S(=O)(=O)Cc1ccc2c(c1C(=O)O)OC(C)c1occc1-2 (single isomer, unassigned) [Example 18B, 7-[2-((Z)-3-diethylaminoprop-1-enyl)-4-fluorobenzenesulfonylmethyl]-4-methyl-4H-furo[2,3-c]chromene-6-carboxylic Acid] | 100 to 1000
4 | C[C@H]1Oc2c(ccc(CS(=O)(=O)c3ccccc3)c2C(=O)O)-c2ccoc21 (stereo in doubt) [Example 6, 7-(Benzenesulfonylmethyl)-4-methyl-4H-furo[2,3-c]chromene-6-carboxylic Acid] | < 100
5 | CCN(CC)C/C=C\c1cc(F)ccc1S(=O)(=O)Nc1ccc2c(c1C(=O)O)OCc1occc1-2 [Example 1, 7-[2-((Z)-3-Diethylaminoprop-1-enyl)-4-fluorobenzenesulfonylamino]-4H-furo[2,3-c]chromene-6-carboxylic Acid] | < 100
6 | O=C(O)c1c(CS(=O)(=O)c2ccccc2)ccc2c1OCc1occc1-2 [Example 2, 7-(Benzenesulfonylmethyl)-4H-furo[2,3-c]chromene-6-carboxylic Acid] | < 100
7 | O=C(O)c1c(CS(=O)(=O)c2ccccc2)ccc2c1OCCc1occc1-2 [Example 3, 8-(Benzenesulfonylmethyl)-4,5-dihydro-3,6-dioxabenzo[e]azulene-7-carboxylic Acid] | 100 to 1000
8 | O=C(O)c1c(CS(=O)(=O)c2ccccc2)ccc2c1ncc1occc12 [Example 4, 7-(Benzenesulfonylmethyl)-furo[2,3-c]quinoline-6-carboxylic Acid] | 100 to 1000
9 | O=C(O)c1c(CS(=O)(=O)c2ccccc2)ccc2c1oc(=O)c1occc12 [Example 5, 7-(Benzenesulfonylmethyl)-4-oxo-4H-furo[2,3-c]chromene-6-carboxylic Acid] | 100 to 1000
10 | CCN(CC)C/C=C\c1cc(F)ccc1S(=O)(=O)Nc1ccc2c(c1C(=O)O)OCCc1occc1-2 [Example 7, 8-[2-((Z)-3-Diethylaminoprop-1-enyl)-4-fluorobenzenesulfonylamino]-4,5-dihydro-3,6-dioxabenzo[e]azulene-7-carboxylic Acid] | < 100
11 | CCN(CC)C/C=C\c1cc(F)ccc1S(=O)(=O)Nc1ccc2c(ncc3occc32)c1C(=O)O [Example 8, 7-[2-((Z)-3-Diethylaminoprop-1-enyl)-4-fluorobenzenesulfonylamino]-furo[2,3-c]quinoline-6-carboxylic Acid] | < 100
12 | CCN(CC)CCCc1cc(F)ccc1S(=O)(=O)Nc1ccc2c(c1C(=O)O)OCc1occc1-2 [Example 9, 7-[2-(3-Diethylaminopropyl)-4-fluorobenzenesulfonylamino]-4H-furo[2,3-c]chromene-6-carboxylic Acid] | < 100
13 | CCNC/C=C\c1cc(F)ccc1S(=O)(=O)Nc1ccc2c(c1C(=O)O)OCc1occc1-2 [Example 10, 7-[2-((Z)-3-Ethylaminoprop-1-enyl)-4-fluorobenzenesulfonylamino]-4H-furo[2,3-c]chromene-6-carboxylic Acid] | < 100
14 | CCN(CC)CCCc1cc(F)ccc1S(=O)(=O)Nc1ccc2c(c1C(=O)O)OCCc1occc1-2 [Example 11, 8-[2-(3-Diethylaminopropyl)-4-fluorobenzenesulfonylamino]-4,5-dihydro-3,6-dioxabenzo[e]azulene-7-carboxylic Acid] | < 100
15 | O=C(O)c1c(NS(=O)(=O)c2ccc(F)cc2/C=C\CN2CCOCC2)ccc2c1OCc1occc1-2 [Example 12, 7-{4-Fluoro-2-[(Z)-3-(morpholin-4-yl)prop-1-enyl]benzenesulfonylamino}-4H-furo[2,3-c]chromene-6-carboxylic Acid] | < 100
16 | O=C(O)c1c(NS(=O)(=O)c2ccc(F)cc2/C=C\CN2CCCC2)ccc2c1OCc1occc1-2 [Example 13, 7-{4-Fluoro-2-[(Z)-3-(pyrrolidin-1-yl)prop-1-enyl]benzenesulfonylamino}-4H-furo[2,3-c]chromene-6-carboxylic Acid] | < 100
17 | CCN(CC)C/C=C\c1cc(F)ccc1S(=O)(=O)Nc1ccc2c(oc(=O)c3occc32)c1C(=O)O [Example 14] | < 100
18 | CCN(CC)CCCc1cc(F)ccc1S(=O)(=O)Nc1ccc2c(ncc3occc32)c1C(=O)O [Example 16, 7-[2-(3-Diethylaminopropyl)-4-fluorobenzenesulfonylamino]-furo[2,3-c]quinoline-6-carboxylic Acid] | < 100
19 | CCN(CC)C/C=C\c1cc(F)ccc1S(=O)(=O)Nc1ccc2c(c1C(=O)O)OCc1cnsc1-2 [Example 17, 7-[2-((Z)-3-Diethylaminoprop-1-enyl)-4-fluorobenzenesulfonylamino]-4H-chromeno[3,4-d]isothiazole-6-carboxylic Acid] | < 100
20 | CCN(CC)C/C=C\c1ccccc1S(=O)(=O)Nc1ccc2c(c1C(=O)O)OCc1occc1-2 [Example 19] | < 100
21 | O=C(O)c1c(NS(=O)(=O)c2ccc(F)cc2/C=C\CN2CC[C@@H](O)C2)ccc2c1OCc1occc1-2 [Example 20, 7-{4-Fluoro-2-[(Z)-3-((R)-3-hydroxypyrrolidin-1-yl)-prop-1-enyl]-benzenesulfonylamino}-4H-furo[2,3-c]chromene-6-carboxylic Acid] | < 100
22 | O=C(O)c1c(NS(=O)(=O)c2ccc(F)cc2/C=C\CN2CC[C@H](O)C2)ccc2c1OCc1occc1-2 [Example 21, 7-{4-Fluoro-2-[(Z)-3-((S)-3-hydroxypyrrolidin-1-yl)-prop-1-enyl]-benzenesulfonylamino}-4H-furo[2,3-c]chromene-6-carboxylic Acid] | < 100
23 | CCN(CC)C/C=C\c1cc(F)ccc1S(=O)(=O)Nc1ccc2c([nH]c(=O)c3occc32)c1C(=O)O [Example 22, 7-[2-((Z)-3-Diethylaminoprop-1-enyl)-4-fluorobenzenesulfonylamino]-4-oxo-4,5-dihydrofuro[2,3-c]quinoline-6-carboxylic Acid] | < 100
24 | O=C(O)c1c(NS(=O)(=O)c2ccc(F)cc2/C=C\CN2CCC2)ccc2c1OCc1occc1-2 [Example 23, 7-{2-[(Z)-3-(Azetidin-1-yl)prop-1-enyl]-4-fluorobenzenesulfonyl-amino}-4H-furo[2,3-c]chromene-6-carboxylic Acid] | < 100
25 | O=C(O)c1c(NS(=O)(=O)c2ccc(F)cc2/C=C\CN2CC(O)C2)ccc2c1OCc1occc1-2 [Example 24, 7-{4-Fluoro-2-[(Z)-3-(3-hydroxyazetidin-1-yl)-prop-1-enyl]-benzenesulfonylamino}-4H-furo[2,3-c]chromene-6-carboxylic Acid] | < 100
26 | CCN(CC)C/C=C\c1cc(F)ccc1S(=O)(=O)Nc1ccc2c(c1C(=O)O)OCc1occ(F)c1-2 [Example 25, 7-[2-((Z)-3-Diethylaminoprop-1-enyl)-4-fluorobenzenesulfonylamino]-1-fluoro-4H-furo[2,3-c]chromene-6-carboxylic Acid] | < 100
27 | CCN(CC)C/C=C/c1cc(F)ccc1S(=O)(=O)Nc1ccc2c(c1C(=O)O)OCc1occc1-2 [Example 26, 7-[2-((E)-3-Diethylaminoprop-1-enyl)-4-fluorobenzenesulfonylamino]-4H-furo[2,3-c]chromene-6-carboxylic Acid] | < 100
